Assay results from US20240368667A1, “RAPID, LABEL-FREE ANTIBIOTIC SUSCEPTIBILITY OF BACTERIA DIRECTLY FROM POSITIVE BLOOD OR BODILY FLUID/CULTURE” (priority 2021, published 2024).
Converted amounts (≈) assume the structure as drawn. Like-named read-outs stand apart in the source and are kept apart here.

Columns and labels:
E. coli = test: Direct flow cytometric AST (high-throughput flow cytometry, HTFC) of sucrose-recovered bacteria; assay type: cell-based, Escherichia coli; set-up: key to susceptibility classification, HTFC: (S) sensitive; (I) intermediate; (R) resistant; conditions: for susceptibility classification, HTFC / MIC: sucrose-recovered, antibiotic 4 hours (37° C.); for MIC: Escherichia coli, 4 h, read-out: Minimum inhibitory concentration, HTFC
Experimental: AST workflow using bacteria recovered directly from positive blood culture. A 1-mL aliquot of bacteria recovered using separation method 2 was diluted 10-fold in CAMHB, the OD600 adjusted to ˜0.01, and a 50 μL aliquot distributed into each well of a 96-well plate containing CAMHB with and without ceftazidime, tobramycin, and either meropenem (E. coli and P. aeruginosa) or oxacillin (S. aureus). Following Clinical and Laboratory Standards Institute (CLSI) guidelines^33, 2% sodium chloride (NaCl) was present in wells containing oxacillin to assist in the detection of methicillin-resistant S. aureus (MRSA). […] To account for observed differences in doubling and lag times, E. coli and P. aeruginosa were incubated for 4 hours at 37° C., while S. aureus was incubated for 9 hours at 35° C. After incubation, antibiotic plates were removed from the incubator and directly stored on ice (i.e. no post-processing) until high-throughput flow cytometry (BD LSRFortessa with HTS-system, BD, Franklin Lakes, NJ). No-antibiotic controls and antibiotic-treated samples were handled identically.
MIC Determination by flow cytometry. Because antibiotic effects are observed in both the position of scatter signatures (morphology changes) and count rates (growth inhibition), a modified count rate, accounting for scatter position, was used to evaluate susceptibility. Briefly, no-antibiotic control populations (triplicate) were pooled, binned, and a convex hull boundary set at 1-standard deviation above the background (not including bins with zero counts) was drawn. […] The overlap ratio, measuring changes in morphology, was then computed by dividing the number of sample events within the no-antibiotic control boundary by the total number of events within the sample. As an increase in count rate attributed to viable bacteria in antibiotic-treated samples is not scientifically meaningful, the fractional overlap was multiplied by the minimum of the control and sample count rates to generate a modified count rate accounting for antibiotic-induced morphological changes. All modified count rates were normalized by the average of the no-antibiotic controls. For automatic MIC determination, normalized count rates corresponding to n (index of predicted MIC), n+1, n+2 were iteratively fit to a linear function with a frameshift of n+1 between iterations (FIGS. 8 and 9). […] A threshold of −0.01 instead of zero was used to mitigate the influence of small fluctuations in normalized count rates on susceptibility determinations.

E. coli 79 = test: Microbroth dilution MIC with and without sucrose recovery; assay type: cell-based, Escherichia coli; conditions: MIC given as multiple of S/I/R
Experimental: Microbroth dilution for minimum inhibitory concentrations (MIC) with and without sucrose recovery. To isolate bacteria without sucrose, culture media from positive BacT/alert FA PLUS aerobic culture bottles (bioMérieux, Durham, NC) was serially diluted and plated onto LB agar (Lennox; Sigma-Aldrich, St. Louis, MO). Bacterial suspensions were prepared by resuspending colonies in CAMHB with incubation on a MaxQ 4000 incubator shaker (Thermo Fisher Scientific, Waltham, MA) at 37° C. and ˜225 rpm for 3 hours. Bacteria recovered via Method 2 were diluted 10-fold in CAMHB. Following incubation or sucrose recovery and dilution, bacterial suspensions were adjusted to ˜0.004 OD600 with CAMHB and a 50-μL aliquot distributed to each well of a 96-well plate containing CAMHB with and without clinically relevant antibiotics (2-fold dilution series). Gram-negative plates included: ceftazidime (3rd generation cephalosporin, RPI corp., Mount Prospect, IL), cefepime (4th generation cephalosporin, Chem-Impex Int'l, Wood Dale, IL), meropenem (carbapenem, Tokyo Chemical Industry, Tokyo, Japan), levofloxacin (quinolone, Alfa Aesar, Haverhill, MA), and tobramycin (aminoglycoside, MP Biomedicals LLC, Santa Ana, CA), while S. aureus plates contained: oxacillin (beta-lactam, Sigma-Aldrich, St. Louis, MO), vancomycin (glycopeptide, Santa Cruz Biotechnology, Dallas, TX), erythromycin (macrolide, Sigma-Aldrich, St. Louis, MO), clindamycin ([…]), and ciprofloxacin (fluoroquinolone, Sigma-Aldrich, St. Louis, MO). Antibiotic plates were incubated at 37° C. for 16-20 hours (gram-negative) or 35° C. for 24 hours (S. aureus), at which time, plates were removed from the incubator and visually inspected for bacterial growth. The MIC was set at the lowest antibiotic concentration at which no growth was detected.
Influence of Sucrose on Bacterial MIC. To rule out the potential effect of sucrose exposure in bacterial antibiotic susceptibility, microbroth dilution studies were performed on bacteria recovered using standard practices (i.e. plating following positive blood culture) and through selective lysis coupled with centrifugation through the sucrose cushion (Method 2).

For `CC(C)(O/N=C(\C(=O)N[C@@H]1C(=O)N2C(C(=O)[O-])=C(C[n+]3ccccc3)CS[C@H]12)c1csc(N)n1)C(=O)O` [Ceftazidime, ceftazidime], the “susceptibility classification, HTFC” value (E. coli; E. coli Blood Culture A) was “(I)”, the “susceptibility classification, HTFC” value (E. coli; E. coli Blood Culture B) was “(R)” and the “susceptibility classification, HTFC” value (E. coli; E. coli EC37) was “(I)”. For the same compound, the “susceptibility classification, HTFC” value (E. coli; E. coli EC-bank) was “(R)”, the “susceptibility classification, HTFC” value (E. coli; E. coli Mu76) was “(S)” and the “susceptibility classification, HTFC” value (E. coli; E. coli Mu218) was “(R)”. The “susceptibility classification, HTFC” value (E. coli; E. coli Mu890) was “(S)”, the MIC (E. coli; E. coli Blood Culture A) was 8 µg/mL (≈ 14.6 µM) and the MIC (E. coli; E. coli Blood Culture B) was 32 µg/mL (≈ 58.5 µM). For the same compound, the MIC (E. coli; E. coli EC37) was 8 µg/mL (≈ 14.6 µM), the MIC (E. coli; E. coli EC-bank) was 16 µg/mL (≈ 29.3 µM) and the MIC (E. coli; E. coli Mu76) was 1 µg/mL (≈ 1.83 µM). For the same compound, the MIC (E. coli; E. coli Mu218) was 16 µg/mL (≈ 29.3 µM) and the MIC (E. coli; E. coli Mu890) was no more than 0.25 µg/mL.
`NC[C@H]1O[C@H](O[C@H]2[C@H](O)[C@@H](O[C@H]3O[C@H](CO)[C@@H](O)[C@H](N)[C@H]3O)[C@H](N)C[C@@H]2N)[C@H](N)C[C@@H]1O` [Tobramycin, tobramycin] was tested, and the “susceptibility classification, HTFC” value (E. coli; E. coli Blood Culture A) was “(S)”, the “susceptibility classification, HTFC” value (E. coli; E. coli Blood Culture B) was “(S)” and the “susceptibility classification, HTFC” value (E. coli; E. coli EC37) was “(S)”. For the same compound, the “susceptibility classification, HTFC” value (E. coli; E. coli EC-bank) was “(S)”, the “susceptibility classification, HTFC” value (E. coli; E. coli Mu76) was “(S)” and the “susceptibility classification, HTFC” value (E. coli; E. coli Mu218) was “(R)”. For the same compound, the “susceptibility classification, HTFC” value (E. coli; E. coli Mu890) was “(S)”, the “flow cytometric count rate” value (E. coli; E. coli, strain not named (FIG. 14), concentrations ≥0.25 μg/mL, no-antibiotic control ~11,000 evts/s) was no less than 100 evts/s and the MIC (E. coli; E. coli Blood Culture A) was 0.25 µg/mL (≈ 0.535 µM). It also gave an MIC (E. coli; E. coli Blood Culture B) of 4 µg/mL (≈ 8.56 µM), an MIC (E. coli; E. coli EC37) of 0.25 µg/mL (≈ 0.535 µM) and an MIC (E. coli; E. coli EC-bank) of no more than 0.125 µg/mL. The MIC (E. coli; E. coli Mu76) was 0.5 µg/mL (≈ 1.07 µM), the MIC (E. coli; E. coli Mu218) was 16 µg/mL (≈ 34.2 µM) and the MIC (E. coli; E. coli Mu890) was 0.5 µg/mL (≈ 1.07 µM). The “minimum inhibitory concentration (MIC), Standard” value (E. coli 79; E. coli 79 recovered by standard plating) was “¼S” and the “minimum inhibitory concentration (MIC), Sucrose” value (E. coli 79; E. coli 79 recovered through sucrose (Method 2)) was “¼S”.
In the case of `C[C@@H](O)[C@H]1C(=O)N2C(C(=O)O)=C(S[C@@H]3CN[C@H](C(=O)N(C)C)C3)[C@H](C)[C@H]12` [Meropenem, meropenem], the “susceptibility classification, HTFC” value (E. coli; E. coli Blood Culture A) is reported as “(S)”, the “susceptibility classification, HTFC” value (E. coli; E. coli Blood Culture B) is reported as “(S)” and the “susceptibility classification, HTFC” value (E. coli; E. coli EC37) is reported as “(S)”. For the same compound, the “susceptibility classification, HTFC” value (E. coli; E. coli EC-bank) was “(S)”, the “susceptibility classification, HTFC” value (E. coli; E. coli Mu76) was “(R)” and the “susceptibility classification, HTFC” value (E. coli; E. coli Mu218) was “(S)”. The “susceptibility classification, HTFC” value (E. coli; E. coli Mu890) was “(S)”, the MIC (E. coli; E. coli Blood Culture A) was no more than 0.06 µg/mL and the MIC (E. coli; E. coli Blood Culture B) was no more than 0.06 µg/mL. The MIC (E. coli; E. coli EC37) was no more than 0.06 µg/mL, the MIC (E. coli; E. coli EC-bank) was no more than 0.06 µg/mL and the MIC (E. coli; E. coli Mu76) was 4 µg/mL (≈ 10.4 µM). The MIC (E. coli; E. coli Mu218) was no more than 0.06 µg/mL and the MIC (E. coli; E. coli Mu890) was no more than 0.06 µg/mL.
